pIC50: −log10 of the molar value.
Columns and labels:
B16F10 = assay: Growth inhibition test (MTT), cytotoxic properties on tumour cell lines; type: cell-based; conditions: Mus musculus, B16-F10, 144 h, day 6, read-out: cytotoxic effect IC50
Experimental: (§1) The human colon cell lines SW 480 and HT 29 (ATCC Nos. CCL 228 and HBT-38), the mouse melanoma cell line B16F10 and the human prostate tumour cell lines LNCaP-FGC, PC-3 and DU 145 (ATCC No. CRL-10995, CRL-1435, HTB-81) were grown in RPMI 1640 medium with addition of 10% FCS in Roux dishes. This was followed by trypsinization and taking up in RPMI plus 10% FCS to a cell count of 50 000 cell/ml. 100 μl of cell suspension/well were put in a 96-microwell plate and incubated in a CO2 incubator at 37° C. for 1 day. A further 100 μl of RPMI medium and 1 μl of DMSO with galiella lactone were then added. The growth was monitored after day 6. For this purpose, 40 μl of MTT solution (3-(4,5-dimethylthiazol-2-yl)-2,5-diphenyltetrazolium bromide) with an initial concentration of 5 mg/ml of H2O were added to each microwell. Incubation took place in a CO2 incubator at 37° C. for 5 hours. The medium was then separated off, and 100 μl of i-propanol/well were added. After shaking with 100 μl of H2 O for 30 min, the extinction at 540 nm was measured with a Titertek Multiscan MCC/340 (flow).
(§2) The cytotoxic effect is indicated in the table as IC50 (galiella lactone concentration in μM) for the various tumour cell lines: […]

LNCaP-FGC = assay: as above; type: cell-based; conditions: Homo sapiens, 144 h, day 6, read-out: cytotoxic effect IC50
Experimental: as §1, §2

HT 29 = assay: as above; type: cell-based; conditions: Homo sapiens, HT-29, 144 h; HAT29, MTT, day 6; read-out: cytotoxic effect IC50
Experimental: as §1, §2

SW 480 = assay: as above; type: cell-based; conditions: Homo sapiens, 144 h; SW480, MTT, day 6; read-out: cytotoxic effect IC50
Experimental: as §1, §2

PC-3 = assay: as above; type: cell-based; conditions: Homo sapiens, 144 h; PC-3, MTT, day 6; read-out: cytotoxic effect IC50
Experimental: as §1, §2

DU 145 = assay: as above; type: cell-based; conditions: Homo sapiens, DU-145, 144 h; DU145, MTT, day 6; read-out: cytotoxic effect IC50
Experimental: as §1, §2

activated Stat3 dimers = target: T1, activated Stat3 dimers (Homo sapiens, UniProt P40763); assay: Electrophoretic mobility shift assay: DNA binding of activated Stat3 dimers to m67SIE probe; conditions: 16 ng/ml (82 nM), HepG2
T1 construct: Probe used: m67SIE, induction time 20 minutes: cell line: HepG2; endogenous in cells; host or cells: HepG2 (cell extract)
T1 sequence (P40763 2-770 limits assumed): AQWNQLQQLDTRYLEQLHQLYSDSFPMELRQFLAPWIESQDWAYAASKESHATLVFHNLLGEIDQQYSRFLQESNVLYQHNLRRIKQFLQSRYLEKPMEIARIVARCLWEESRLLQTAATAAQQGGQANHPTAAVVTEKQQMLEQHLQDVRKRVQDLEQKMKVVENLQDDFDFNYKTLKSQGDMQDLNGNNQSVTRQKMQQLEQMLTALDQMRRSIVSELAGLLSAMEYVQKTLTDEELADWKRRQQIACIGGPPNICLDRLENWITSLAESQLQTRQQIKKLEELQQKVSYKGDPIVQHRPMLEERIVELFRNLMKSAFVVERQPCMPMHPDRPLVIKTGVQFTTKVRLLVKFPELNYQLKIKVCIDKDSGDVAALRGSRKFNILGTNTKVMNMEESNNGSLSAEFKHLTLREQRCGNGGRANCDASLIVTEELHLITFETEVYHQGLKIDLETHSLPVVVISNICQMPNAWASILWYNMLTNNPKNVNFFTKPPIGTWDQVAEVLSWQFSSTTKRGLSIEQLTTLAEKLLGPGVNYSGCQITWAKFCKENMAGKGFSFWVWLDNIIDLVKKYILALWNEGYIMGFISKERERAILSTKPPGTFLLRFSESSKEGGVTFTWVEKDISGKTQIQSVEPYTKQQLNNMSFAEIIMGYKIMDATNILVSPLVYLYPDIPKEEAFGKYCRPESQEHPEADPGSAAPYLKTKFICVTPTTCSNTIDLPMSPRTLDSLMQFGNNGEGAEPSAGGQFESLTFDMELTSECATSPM
From the text: The DNA binding of activated Stat3 dimers to their binding sites in the promoters of the target genes is the basic requirement for transcriptional activation of these genes. At the same time, this step is specific for Stat3, i.e. inhibition of this step would result in specific inhibition of IL-6-induced and Stat3-mediated expression of the target genes without simultaneously affecting other signal cascades. The effect of the various compounds on the DNA binding ability of the phosphorylated and thus activated Stat3 dimers was analysed by carrying out electrophoretic mobility shift assays (EMSAs, gel shift assays).
The procedure was as described in Nature, 1993, 362: 79-83 and Mol. Cell Biol, 1998, 18: 2108-17. The DNA probe used was the ^32P-labelled, double-stranded oligonucleotide with the m67SIE recognition sequence (S2) (wild-type) (cf. EMBO J. 1995, 14: 1421-9)
It was possible to show with control mixtures in which the induced control was preincubated with phospho-Stat3 (tyrosine 705)-specific antibodies that it is Stat3 phosphorylated on the tyrosine 705 residue which binds to the m67SIE probe (see FIG. 6).
Effect of galiella lactone on the binding of activated Stat3 dimers to their DNA recognition sequence. Probe used: m67SIE, induction time 20 minutes: cell line: HepG2.

[1] = test system: primary neurons of the rat cerebellum; assay: NMDA-mediated calcium influx into primary neurons after chronic IL-6 treatment; type: cell-based
Experimental: Cultures of primary neurons were obtained from the cerebella of rats 6 to 8 days old as described by B. Engelsen and R. Bjerkvig [in R. I. Freshney (Editor) Culture of Animal Cells, 2nd Edition, Alan R. Liss, Inc. New York 1987, 277-279]. After removal of the tissue, single cells were obtained using papain and were seeded out in a density of 200 00 cells per well in microtitre plates (96 wells) coated with poly-D-lysine. The cells were cultivated in a growth medium consisting of DMEM/F12, 10% heat-inactivated horse serum. 25 mM KCl, 30 mM glucose, 2 mM glutamine. In order to minimize the number of glial cells, 5-fluoro-2′-deoxyuridine (20 μg/ml) was added on the first and fourth day in culture. The cultures obtained in this way consisted of more than 95% neurons.
Human recombinant interluekin-6 (IL-6) was dissolved in physiological salt solution (Hank's balanced salt solution) and added to neuron cultures on days, 1, 4, 7 and 11 after the start of culturing (final) concentration 5 ng/ml). […]
12 days after the start of culturing, the N-methyl-D-asparate (NMDA)-induced changes in the intracellular calcium level were measured using a fluorescence plate reader (Ascent Fluoroscan). […] The cells were stimulated by adding NMDA (final concentration 200 μM) in the presence of glycine (final concentration 5 μM), and the fluroescence was measured at 15-second intervals over a period of one minute (excitation 485 nm. emission 530 nm). Intracellular calcium concentrations were calculated by the formula [Ca^2]i=Kd.
The arithmetic means was formed from the intracellular calcium concentrations found at all four times of measurement, and the percentage change from the unstimulated controls (basa) calcium concentration) was calculated.
Inhibition of the potentiation, induced chronic IL-6 administration, of the NMDA-mediated calcium influx into primary neurons of the rat cerebellum by galiella lactone. […] The average calcium concentration during the one-minute measurement period was calculated and expressed as a per cent of the basal intracellular calcium concentration. […]

How did the pIC50 (B16F10) turn out when `C[C@H]1C=C2C(=O)O[C@H]3CC[C@@H](C1)[C@@]23O` [galiella lactone] was run?
Its pIC50 is 5.52.

And the pIC50 (LNCaP-FGC)?
Its pIC50 is 5.70.

And the pIC50 (HT 29)?
Its pIC50 is 5.30.

And the pIC50 (SW 480)?
The pIC50 was 5.30.

And the pIC50 (PC-3)?
The pIC50 was 5.40.

What about the pIC50 (DU 145) of the same compound?
The pIC50 was 5.35.

And the “binding of the activated Stat3 dimers to their recognition sequence” value (activated Stat3 dimers)?
Its value is “completely inhibits”.

What about the “IL-6-induced enhancement of the NMDA-mediated calcium influx” value ([1]; 1 μM before each IL-6 addition (5 ng/ml), NMDA 200 μM) of the same compound?
The value was “completely prevented”.

What about the “NMDA-induced increase in average intracellular calcium concentration” value ([1]; chronic administration 1 μM, NMDA 200 μM, without IL-6) of the same compound?
The value was “somewhat reduced”.

What about the “effect on the basal calcium level” value ([1]; chronic treatment, 1 μM, no NMDA) of the same compound?
The value was “no effect”.
